This note sets out measurements from ChEMBL document CHEMBL1201862, “PubChem BioAssay data set” (2004).

Molecules are shown by their SMILES. The source made the active and inactive calls. Where only a bound is given, the exact number is not on record here.

What is called AC50 is the concentration at which the activity in the assay is half-maximal.

In assay [1] the target is Voltage-gated inwardly rectifying potassium channel KCNH2 (Homo sapiens, UniProt Q12809). The conditions noted are these: Potency.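 Further: confirmatory quantitative high-throughput screen measuring inhibition of hERG channel activity.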
A short description of assay [2]: toxicity toward cultured mammalian cells – cell-based, plate reader, cherry-pick samples, cytotoxicity control, dose response (AID 504397). The format is functional.
Assay [3] is described as follows: viability loss of HMLE_sh_eGFP cells – cell-based, luminescence, counter-screen for HMLE_sh_ECad selective toxicity project, dose response (AID 463074).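 Further: HMLE human mammary epithelial cells expressing control shRNA against eGFP.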 The format is functional, Homo sapiens. In general terms: Counterscreens check selectivity or assay interference.
Assay [4] can be described thus: Luminescence Cell-Based Dose Retest to Confirm Inhibitors of Cancer Stem Cells. [Related pubchem assays (depositor defined):AID2717, AID2721]. The conditions noted are these: Homo sapiens. The format is functional.
Assay [5] addresses CAAX prenyl protease 2 (Homo sapiens, UniProt Q9Y256). In words: inhibition of Ras-converting CAAX protease Rce1 – biochemical, yeast membranes, quenched-peptide fluorescence, cherry-pick, dose response (AID 588849).
The target in assay [6] is T1, CAAX prenyl protease 2 (Saccharomyces cerevisiae S288c, UniProt Q03530).
T1 sequence (Q03530 whole entry): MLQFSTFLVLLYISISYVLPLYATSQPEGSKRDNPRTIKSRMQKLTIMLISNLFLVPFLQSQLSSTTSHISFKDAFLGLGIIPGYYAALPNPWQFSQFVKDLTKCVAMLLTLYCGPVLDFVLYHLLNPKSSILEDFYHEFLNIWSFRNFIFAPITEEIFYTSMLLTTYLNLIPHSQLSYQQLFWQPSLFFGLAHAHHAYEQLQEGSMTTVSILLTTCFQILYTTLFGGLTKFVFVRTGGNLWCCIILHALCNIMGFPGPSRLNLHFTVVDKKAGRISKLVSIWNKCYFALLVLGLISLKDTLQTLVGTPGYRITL
It counts as biochemical.

In assay [7] the target is T2, Microphthalmia-associated transcription factor (Homo sapiens, UniProt O75030).
T2 sequence (O75030 whole entry): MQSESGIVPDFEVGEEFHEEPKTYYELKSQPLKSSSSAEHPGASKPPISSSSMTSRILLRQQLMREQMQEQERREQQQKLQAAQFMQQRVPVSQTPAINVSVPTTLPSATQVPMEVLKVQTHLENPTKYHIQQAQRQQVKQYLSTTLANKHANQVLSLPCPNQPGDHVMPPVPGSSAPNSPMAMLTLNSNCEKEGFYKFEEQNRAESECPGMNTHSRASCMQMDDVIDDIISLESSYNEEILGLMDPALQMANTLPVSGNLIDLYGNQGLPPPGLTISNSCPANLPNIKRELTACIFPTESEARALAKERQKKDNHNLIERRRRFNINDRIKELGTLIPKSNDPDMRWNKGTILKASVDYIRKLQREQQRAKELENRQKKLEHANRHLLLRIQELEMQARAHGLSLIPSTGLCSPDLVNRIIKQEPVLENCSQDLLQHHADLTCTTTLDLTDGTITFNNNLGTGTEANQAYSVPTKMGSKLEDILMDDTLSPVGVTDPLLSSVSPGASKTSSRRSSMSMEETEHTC
Nature of the assay: reducers of TRPM1 reporter luminescence, concentration series – cell-based, SK-MEL-5, cherry-picked, set 3, MITF inhibitor project, dose response (AID 493073).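 Further: SK-MEL-5 melanoma cells with luciferase driven by the MITF target TRPM1 promoter.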 The format is functional.

Assay [8] deals with A-375. Nature of the assay: MITF: Counter assay: A375 proliferation Measured in Cell-Based System Using Plate Reader - 2084-03_Inhibitor_Dose_DryPowder_Activity. [Related pubchem assays (depositor defined):AID488944]. The format is functional. The conditions noted are these: Homo sapiens.
Assay [9] concerns A-375. In words: proliferation inhibition in MITF-low A375 cells – cell-based, cherry-pick samples, set 2, counter-screen for MITF modulator project, dose response (AID 540335). The format is functional. The settings on record: Homo sapiens.

Sequence of Voltage-gated inwardly rectifying potassium channel KCNH2 (Q12809 whole entry): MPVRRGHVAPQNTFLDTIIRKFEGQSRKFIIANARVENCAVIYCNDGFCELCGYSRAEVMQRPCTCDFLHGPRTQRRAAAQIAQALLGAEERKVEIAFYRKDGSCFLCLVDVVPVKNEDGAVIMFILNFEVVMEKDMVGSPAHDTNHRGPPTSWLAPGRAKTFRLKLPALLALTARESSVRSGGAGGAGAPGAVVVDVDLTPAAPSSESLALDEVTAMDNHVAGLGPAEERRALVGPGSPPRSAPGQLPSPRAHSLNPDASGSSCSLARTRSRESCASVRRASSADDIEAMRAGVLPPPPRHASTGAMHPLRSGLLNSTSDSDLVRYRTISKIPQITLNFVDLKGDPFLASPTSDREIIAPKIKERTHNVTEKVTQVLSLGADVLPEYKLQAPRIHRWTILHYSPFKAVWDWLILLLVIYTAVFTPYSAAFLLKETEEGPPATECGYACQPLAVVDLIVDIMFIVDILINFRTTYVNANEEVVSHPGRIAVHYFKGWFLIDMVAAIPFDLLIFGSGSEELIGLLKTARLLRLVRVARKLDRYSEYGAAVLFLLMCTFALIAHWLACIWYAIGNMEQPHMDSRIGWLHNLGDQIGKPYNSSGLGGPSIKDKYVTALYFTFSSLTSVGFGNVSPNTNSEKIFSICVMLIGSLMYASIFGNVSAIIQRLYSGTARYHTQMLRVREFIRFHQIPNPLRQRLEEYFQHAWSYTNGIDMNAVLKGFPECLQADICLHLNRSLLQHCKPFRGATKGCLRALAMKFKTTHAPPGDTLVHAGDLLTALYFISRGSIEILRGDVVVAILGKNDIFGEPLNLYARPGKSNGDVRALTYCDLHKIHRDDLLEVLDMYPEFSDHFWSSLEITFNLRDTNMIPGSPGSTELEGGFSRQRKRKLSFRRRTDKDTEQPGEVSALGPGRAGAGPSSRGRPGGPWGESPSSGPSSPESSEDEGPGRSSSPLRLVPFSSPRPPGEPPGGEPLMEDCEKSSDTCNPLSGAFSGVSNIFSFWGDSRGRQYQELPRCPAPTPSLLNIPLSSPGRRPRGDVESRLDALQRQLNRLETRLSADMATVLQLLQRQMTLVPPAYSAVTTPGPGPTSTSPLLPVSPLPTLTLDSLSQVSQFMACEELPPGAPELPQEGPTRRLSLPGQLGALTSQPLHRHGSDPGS
Sequence of CAAX prenyl protease 2 (Homo sapiens, UniProt Q9Y256) (Q9Y256 whole entry): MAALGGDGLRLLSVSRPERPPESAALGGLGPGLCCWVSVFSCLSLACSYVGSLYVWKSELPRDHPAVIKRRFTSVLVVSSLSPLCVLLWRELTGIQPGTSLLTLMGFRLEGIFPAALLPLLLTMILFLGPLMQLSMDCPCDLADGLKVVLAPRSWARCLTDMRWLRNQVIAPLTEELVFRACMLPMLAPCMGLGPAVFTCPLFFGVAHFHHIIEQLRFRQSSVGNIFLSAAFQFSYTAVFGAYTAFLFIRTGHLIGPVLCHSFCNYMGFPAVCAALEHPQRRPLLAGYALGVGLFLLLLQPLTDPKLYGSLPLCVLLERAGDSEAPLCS

Consider `N[C@@H](Cc1ccc(F)cc1)C(=O)O`, for which, in [1], the AC50 was 35.5 µM (inconclusive).
For the compound `Cc1ccc(OCCN2C(=O)C(=O)c3cc(C)ccc32)cc1`, the AC50 was 4.64 µM (active) in [2]; 145 µM (active) in assay [3]; 24.2 µM (active) in assay [4]; 12.8 µM (active) in assay [5]; 1.6 µM (active) in assay [6].
`Cc1ccc([N+](=O)[O-])cc1N1C(=O)CS/C1=N\NC(=O)c1cccnc1`: the AC50 in assay [7] was 48.7 µM (active); in [8] it was > 35 µM (active); in assay [9], > 35 µM (active).
